Data: PubChem BioAssay AID1963869 (Molecular Pharmacology Branch, DTP, NCI, 2024)

System: KRAS patient-derived spheroids with HUVEC/MSC, viability
Assay: Anticancer human tumor 323965-272-R-J2-PDC patient-derived pancreatic carcinoma cell line growth inhibition [KRAS2]
Settings: for IC50: curve of first compound; for viability, T/C: stronger effect = lower value; active = viability on the fitted dose curve at most 10% of control; inactive = the rest
Summary of the method: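 KRAS-mutant tumor cells were grown as spheroids with HUVEC endothelial cells and human MSCs as stroma. Targeted agents were tested alone and with KRAS pathway inhibitors. Doses started at or near clinical Cmax, or 10 microM, descending half-log.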

[1] = second compound 0.1 µM, first compound 0.0316 µM
[2] = second compound 0.1 µM, first compound 0.1 µM
[3] = second compound 0.1 µM, first compound 0.316 µM
[4] = second compound 0.1 µM, first compound 1 µM
[5] = second compound 0.1 µM, first compound 3.16 µM
[6] = second compound 0.1 µM, first compound 10 µM
[7] = second compound 0.316 µM, first compound 0.0316 µM
[8] = second compound 0.316 µM, first compound 0.1 µM
[9] = second compound 0.316 µM, first compound 0.316 µM
[10] = second compound 0.316 µM, first compound 1 µM
[11] = second compound 0.316 µM, first compound 3.16 µM
[12] = second compound 0.316 µM, first compound 10 µM
[13] = second compound 1 µM, first compound 0.0316 µM
[14] = second compound 1 µM, first compound 0.1 µM
[15] = second compound 1 µM, first compound 0.316 µM
[16] = second compound 1 µM, first compound 1 µM
[17] = second compound 1 µM, first compound 3.16 µM
[18] = second compound 1 µM, first compound 10 µM
[19] = second compound 3.16 µM, first compound 0.0316 µM
[20] = second compound 3.16 µM, first compound 0.1 µM
[21] = second compound 3.16 µM, first compound 0.316 µM
[22] = second compound 3.16 µM, first compound 1 µM
[23] = second compound 3.16 µM, first compound 3.16 µM
[24] = second compound 3.16 µM, first compound 10 µM
[25] = second compound 10 µM, first compound 0.0316 µM
[26] = second compound 10 µM, first compound 0.1 µM
[27] = second compound 10 µM, first compound 0.316 µM
[28] = second compound 10 µM, first compound 1 µM
[29] = second compound 10 µM, first compound 3.16 µM
[30] = second compound 10 µM, first compound 10 µM
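Note: spheroids exposed to agents for 7 days.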
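Throughout, for viability, T/C: 100% = DMSO vehicle control viability.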

CC1OCC2(CCN(c3cnc(Sc4ccnc(N)c4Cl)c(N)n3)CC2)C1N (stereo not given) + CNCc1ccccc1-c1csc(C(C)Nc2nc(C)nc3cc(OC)c(OC)cc23)c1
548 nM: IC50 (second compound 1 µM)
351 nM: IC50 (second compound 3.16 µM)
inactive: viability, T/C [1] 77.4% | viability, T/C [2] 65.6% | viability, T/C [3] 53.4% | viability, T/C [4] 38.6% | viability, T/C [5] 28.7% | viability, T/C [6] 17.8% | viability, T/C [7] 82.1% | viability, T/C [8] 55.4% | viability, T/C [9] 44.1% | viability, T/C [10] 41.6% | viability, T/C [11] 27.9% | viability, T/C [12] 25.9% | viability, T/C [13] 101% | viability, T/C [14] 71.9% | viability, T/C [15] 60.5% | viability, T/C [16] 40.7% | viability, T/C [17] 35.1% | viability, T/C [18] 33.4% | viability, T/C [19] 83.5% | viability, T/C [20] 65.8% | viability, T/C [21] 51.3% | viability, T/C [22] 40.8% | viability, T/C [23] 27% | viability, T/C [24] 25.5%
active: viability, T/C [25] 0.33% | viability, T/C [26] 0.17% | viability, T/C [27] 0.15% | viability, T/C [28] 0.14% | viability, T/C [29] 0.13% | viability, T/C [30] 0.18%
404 nM: IC50 (second compound 0.1 µM)
< 31.6 nM: IC50 (second compound 10 µM)
202 nM: IC50 (second compound 0.316 µM)

COC(=O)c1ccc2c(C(=Nc3ccc(N(C)C(=O)CN4CCN(C)CC4)cc3)c3ccccc3)c(O)[nH]c2c1 + CC1OCC2(CCN(c3cnc(Sc4ccnc(N)c4Cl)c(N)n3)CC2)C1N
inactive: viability, T/C [1] 78.8% | viability, T/C [2] 85.7% | viability, T/C [3] 81.8% | viability, T/C [4] 76.3% | viability, T/C [5] 79.1% | viability, T/C [6] 73.4% | viability, T/C [7] 74.8% | viability, T/C [8] 59.2% | viability, T/C [9] 61.1% | viability, T/C [10] 65.2% | viability, T/C [11] 50% | viability, T/C [12] 45.8% | viability, T/C [13] 45.3% | viability, T/C [14] 47.9% | viability, T/C [15] 53.2% | viability, T/C [16] 41.6% | viability, T/C [17] 43.9% | viability, T/C [18] 41.6% | viability, T/C [19] 34.6% | viability, T/C [20] 38.7% | viability, T/C [21] 35.2% | viability, T/C [22] 36% | viability, T/C [23] 31.9% | viability, T/C [24] 33.3% | viability, T/C [25] 31.8% | viability, T/C [26] 30.3% | viability, T/C [27] 29.7% | viability, T/C [28] 27.5% | viability, T/C [29] 23.4% | viability, T/C [30] 23.2%
5080 nM: IC50 (second compound 0.316 µM)
< 31.6 nM: IC50 (second compound 1 µM) | IC50 (second compound 3.16 µM) | IC50 (second compound 10 µM)
> 10000 nM: IC50 (second compound 0.1 µM)

COc1cc(Nc2ncc3c(n2)-c2ccc(Cl)cc2C(c2c(F)cccc2OC)=NC3)ccc1C(=O)O + CNCc1ccccc1-c1csc(C(C)Nc2nc(C)nc3cc(OC)c(OC)cc23)c1
92.6 nM: IC50 (second compound 0.316 µM)
< 31.6 nM: IC50 (second compound 10 µM)
96.4 nM: IC50 (second compound 1 µM)
active: viability, T/C [25] 0.29% | viability, T/C [26] 0.17% | viability, T/C [27] 0.16% | viability, T/C [28] 0.2% | viability, T/C [29] 0.35% | viability, T/C [30] 0.26%
> 10000 nM: IC50 (second compound 3.16 µM)
inactive: viability, T/C [1] 80.2% | viability, T/C [2] 52.9% | viability, T/C [3] 32% | viability, T/C [4] 39.3% | viability, T/C [5] 55.5% | viability, T/C [6] 63.5% | viability, T/C [7] 78.8% | viability, T/C [8] 50.2% | viability, T/C [9] 33.6% | viability, T/C [10] 35.6% | viability, T/C [11] 52.3% | viability, T/C [12] 55.2% | viability, T/C [13] 85.6% | viability, T/C [14] 51% | viability, T/C [15] 31.9% | viability, T/C [16] 37.9% | viability, T/C [17] 51.1% | viability, T/C [18] 60% | viability, T/C [19] 88.2% | viability, T/C [20] 36.9% | viability, T/C [21] 17.9% | viability, T/C [22] 39.5% | viability, T/C [23] 63.3% | viability, T/C [24] 64.6%
128 nM: IC50 (second compound 0.1 µM)

O=C(c1cc(Cc2n[nH]c(=O)c3ccccc23)ccc1F)N1CCN(C(=O)C2CC2)CC1 + CNCc1ccccc1-c1csc(C(C)Nc2nc(C)nc3cc(OC)c(OC)cc23)c1
< 31.6 nM: IC50 (second compound 10 µM)
> 10000 nM: IC50 (second compound 0.1 µM) | IC50 (second compound 0.316 µM) | IC50 (second compound 1 µM)
8840 nM: IC50 (second compound 3.16 µM)
active: viability, T/C [25] 6.59% | viability, T/C [26] 0.4% | viability, T/C [27] 2.23% | viability, T/C [28] 0.39% | viability, T/C [29] 0.34% | viability, T/C [30] 0.82%
inactive: viability, T/C [1] 98.7% | viability, T/C [2] 93.1% | viability, T/C [3] 97.8% | viability, T/C [4] 93.6% | viability, T/C [5] 89% | viability, T/C [6] 57.1% | viability, T/C [7] 94.9% | viability, T/C [8] 91% | viability, T/C [9] 98.4% | viability, T/C [10] 89.7% | viability, T/C [11] 86.2% | viability, T/C [12] 51.5% | viability, T/C [13] 92% | viability, T/C [14] 93.5% | viability, T/C [15] 84.5% | viability, T/C [16] 86.3% | viability, T/C [17] 83.3% | viability, T/C [18] 52.9% | viability, T/C [19] 102% | viability, T/C [20] 102% | viability, T/C [21] 96.4% | viability, T/C [22] 98.8% | viability, T/C [23] 92.5% | viability, T/C [24] 44.8%

CN(C)C/C=C/C(=O)Nc1cc2c(Nc3ccc(F)c(Cl)c3)ncnc2cc1O[C@H]1CCOC1 + C=CC(=O)N1CCN(c2nc(OCC3CCCN3C)nc3c2CCN(c2cccc4cccc(C)c24)C3)CC1CC#N
inactive: viability, T/C (second compound 0.0316 µM, first compound 0.000316 µM) 75.1% | viability, T/C (second compound 0.0316 µM, first compound 0.001 µM) 66.2% | viability, T/C (second compound 0.0316 µM, first compound 0.00316 µM) 55.9% | viability, T/C (second compound 0.0316 µM, first compound 0.01 µM) 49.6% | viability, T/C (second compound 0.0316 µM, first compound 0.0316 µM) 49.9% | viability, T/C (second compound 0.0316 µM, first compound 0.1 µM) 47.9% | viability, T/C (second compound 0.1 µM, first compound 0.000316 µM) 66% | viability, T/C (second compound 0.1 µM, first compound 0.001 µM) 52.5% | viability, T/C (second compound 0.1 µM, first compound 0.00316 µM) 48.4% | viability, T/C (second compound 0.1 µM, first compound 0.01 µM) 42.4% | viability, T/C [1] 40.9% | viability, T/C [2] 42.3% | viability, T/C (second compound 0.316 µM, first compound 0.000316 µM) 56.2% | viability, T/C (second compound 0.316 µM, first compound 0.001 µM) 51.1% | viability, T/C (second compound 0.316 µM, first compound 0.00316 µM) 53.2% | viability, T/C (second compound 0.316 µM, first compound 0.01 µM) 43.1% | viability, T/C [7] 39.2% | viability, T/C [8] 39.1% | viability, T/C (second compound 1 µM, first compound 0.000316 µM) 62.5% | viability, T/C (second compound 1 µM, first compound 0.001 µM) 52.4% | viability, T/C (second compound 1 µM, first compound 0.00316 µM) 52.6% | viability, T/C (second compound 1 µM, first compound 0.01 µM) 41.9% | viability, T/C [13] 40.7% | viability, T/C [14] 42.5% | viability, T/C (second compound 3.16 µM, first compound 0.000316 µM) 36.8% | viability, T/C (second compound 3.16 µM, first compound 0.001 µM) 34.9% | viability, T/C (second compound 3.16 µM, first compound 0.00316 µM) 19.4% | viability, T/C (second compound 3.16 µM, first compound 0.01 µM) 17.3% | viability, T/C [19] 17% | viability, T/C [20] 14.7%
1.77 nM: IC50 (second compound 0.1 µM)
13 nM: IC50 (second compound 0.0316 µM)
2.3 nM: IC50 (second compound 0.316 µM) | IC50 (second compound 1 µM)
< 0.316 nM: IC50 (second compound 3.16 µM)

COc1cc2nccc(Oc3ccc(NC(=O)C4(C(=O)Nc5ccc(F)cc5)CC4)cc3)c2cc1OC + CC1OCC2(CCN(c3cnc(Sc4ccnc(N)c4Cl)c(N)n3)CC2)C1N
> 10000 nM: IC50 (second compound 0.1 µM) | IC50 (second compound 0.316 µM)
inactive: viability, T/C [1] 80.4% | viability, T/C [2] 80.5% | viability, T/C [3] 74.9% | viability, T/C [4] 87.4% | viability, T/C [5] 79.8% | viability, T/C [6] 73.5% | viability, T/C [7] 58.7% | viability, T/C [8] 65.4% | viability, T/C [9] 65.5% | viability, T/C [10] 64.6% | viability, T/C [11] 71.9% | viability, T/C [12] 63% | viability, T/C [13] 46.9% | viability, T/C [14] 42.4% | viability, T/C [15] 46.9% | viability, T/C [16] 58.4% | viability, T/C [17] 52.8% | viability, T/C [18] 45.4% | viability, T/C [19] 35.1% | viability, T/C [20] 36.1% | viability, T/C [21] 36.3% | viability, T/C [22] 35.5% | viability, T/C [23] 35.2% | viability, T/C [24] 29.8% | viability, T/C [25] 27.4% | viability, T/C [26] 28.8% | viability, T/C [27] 26.8% | viability, T/C [28] 30.3% | viability, T/C [29] 33.5% | viability, T/C [30] 27.3%
< 31.6 nM: IC50 (second compound 1 µM) | IC50 (second compound 3.16 µM) | IC50 (second compound 10 µM)
